From US7074789B2, “Kinase inhibitors” (Amgen Inc., priority 1999, dated 2006)

Key:
Format in all cases: biochemical
[1] = target: T1, c-Met (Homo sapiens, UniProt P08581); test: Kinase inhibition assay (33P transfer), c-Met; conditions: Table 2, class symbols A-E; read-out: Met-1
T1 construct: Kinases are expressed as either kinase domains or full length constructs; made in house
Procedure, shortened: (§1)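 Using immobilised substrate copolymers (poly(Glu,Tyr) 4:1; poly(Arg,Ser) 3:1) and [33P]ATP, purified fusion kinases were allowed to react; plates were then rinsed in 0.5% phosphoric acid and counted in a scintillation detector. Half-maximal inhibition of label transfer defines IC50.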

[2] = target: T2, ErbB2 (Homo sapiens, UniProt P04626); test: Kinase inhibition assay (33P transfer), ErbB2; conditions: read-out: ErbB2-2
T2 construct: Kinases are expressed as either kinase domains or full length constructs; made in house
Procedure, shortened: as §1

[3] = target: T3, Zap-70 (Homo sapiens, UniProt P43403); test: Kinase inhibition assay (33P transfer), Zap-70; conditions: Table 3, class symbols; read-out: Zap-1
T3 construct: Kinases are expressed as either kinase domains or full length constructs; made in house
T3 sequence (P43403 1-619): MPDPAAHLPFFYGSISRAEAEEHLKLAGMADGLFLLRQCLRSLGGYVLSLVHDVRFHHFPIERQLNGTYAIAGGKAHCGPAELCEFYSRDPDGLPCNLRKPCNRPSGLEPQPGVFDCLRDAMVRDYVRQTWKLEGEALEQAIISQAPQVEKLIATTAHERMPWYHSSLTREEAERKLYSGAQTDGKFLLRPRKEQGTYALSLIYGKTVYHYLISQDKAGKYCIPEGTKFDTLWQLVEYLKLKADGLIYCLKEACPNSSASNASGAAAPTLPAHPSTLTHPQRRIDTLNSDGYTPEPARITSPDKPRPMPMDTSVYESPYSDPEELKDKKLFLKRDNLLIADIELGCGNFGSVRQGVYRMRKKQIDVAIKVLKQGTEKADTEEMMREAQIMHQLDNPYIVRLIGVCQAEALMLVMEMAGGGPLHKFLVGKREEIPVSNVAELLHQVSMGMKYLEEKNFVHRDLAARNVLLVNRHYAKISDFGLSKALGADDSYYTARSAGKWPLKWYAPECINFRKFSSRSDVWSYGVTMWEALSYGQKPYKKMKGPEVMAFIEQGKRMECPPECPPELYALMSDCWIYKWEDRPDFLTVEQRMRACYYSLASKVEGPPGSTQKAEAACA
Procedure, shortened: (§2)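 Radiometric readout: 33P incorporated into surface-bound poly(Glu,Tyr) 4:1 or poly(Arg,Ser) 3:1 is counted by liquid scintillation after a 0.5% phosphoric acid wash. Enzymes were GST or polyHis fusions (kinase domain or full length) from E. coli or High Five insect cells.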

[4] = target: T4, IGFR-1 (Homo sapiens, UniProt P08069); test: Kinase inhibition assay (33P transfer), IGFR-1; conditions: Table 2, class symbols A-E
T4 construct: Kinases are expressed as either kinase domains or full length constructs; made in house
T4 sequence (P08069 31-1367): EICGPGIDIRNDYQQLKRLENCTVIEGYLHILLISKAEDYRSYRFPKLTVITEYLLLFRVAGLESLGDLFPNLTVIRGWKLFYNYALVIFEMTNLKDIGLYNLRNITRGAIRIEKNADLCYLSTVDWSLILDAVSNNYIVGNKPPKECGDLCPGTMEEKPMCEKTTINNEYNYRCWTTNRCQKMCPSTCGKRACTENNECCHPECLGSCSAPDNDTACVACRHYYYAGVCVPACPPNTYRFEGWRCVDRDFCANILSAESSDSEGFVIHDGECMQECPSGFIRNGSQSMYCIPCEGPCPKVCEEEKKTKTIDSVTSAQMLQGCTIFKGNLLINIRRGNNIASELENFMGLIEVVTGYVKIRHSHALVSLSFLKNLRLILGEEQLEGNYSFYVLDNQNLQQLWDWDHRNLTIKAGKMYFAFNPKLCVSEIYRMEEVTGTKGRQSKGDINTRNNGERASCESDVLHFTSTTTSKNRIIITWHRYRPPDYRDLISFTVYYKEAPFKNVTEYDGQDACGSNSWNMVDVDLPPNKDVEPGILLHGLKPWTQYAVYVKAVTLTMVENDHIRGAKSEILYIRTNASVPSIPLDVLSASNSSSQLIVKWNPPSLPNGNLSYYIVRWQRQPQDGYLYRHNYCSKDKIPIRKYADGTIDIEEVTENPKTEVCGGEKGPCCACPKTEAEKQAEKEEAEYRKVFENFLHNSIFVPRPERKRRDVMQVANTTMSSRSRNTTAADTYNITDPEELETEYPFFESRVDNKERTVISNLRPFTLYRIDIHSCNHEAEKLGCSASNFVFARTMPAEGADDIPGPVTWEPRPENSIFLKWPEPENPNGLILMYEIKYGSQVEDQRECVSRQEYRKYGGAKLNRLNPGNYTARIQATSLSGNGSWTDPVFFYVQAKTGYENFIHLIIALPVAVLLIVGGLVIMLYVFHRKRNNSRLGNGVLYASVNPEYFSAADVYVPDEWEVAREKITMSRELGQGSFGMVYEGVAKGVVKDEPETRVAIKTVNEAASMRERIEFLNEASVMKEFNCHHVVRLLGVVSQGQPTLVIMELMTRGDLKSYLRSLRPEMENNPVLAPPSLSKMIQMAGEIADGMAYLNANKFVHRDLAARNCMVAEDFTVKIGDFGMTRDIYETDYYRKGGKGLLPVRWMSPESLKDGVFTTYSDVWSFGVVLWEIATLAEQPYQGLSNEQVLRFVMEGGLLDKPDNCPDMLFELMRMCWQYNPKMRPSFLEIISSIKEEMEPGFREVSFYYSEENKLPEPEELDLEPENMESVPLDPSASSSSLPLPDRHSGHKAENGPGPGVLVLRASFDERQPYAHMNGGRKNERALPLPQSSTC

[5] = target: T5, Kdr (Homo sapiens, UniProt P35968); test: Kinase inhibition assay (33P transfer), Kdr; conditions: Table 3, class symbols; read-out: KDR-1
T5 construct: Kinases are expressed as either kinase domains or full length constructs; made in house
T5 sequence (P35968 20-1356, species assumed): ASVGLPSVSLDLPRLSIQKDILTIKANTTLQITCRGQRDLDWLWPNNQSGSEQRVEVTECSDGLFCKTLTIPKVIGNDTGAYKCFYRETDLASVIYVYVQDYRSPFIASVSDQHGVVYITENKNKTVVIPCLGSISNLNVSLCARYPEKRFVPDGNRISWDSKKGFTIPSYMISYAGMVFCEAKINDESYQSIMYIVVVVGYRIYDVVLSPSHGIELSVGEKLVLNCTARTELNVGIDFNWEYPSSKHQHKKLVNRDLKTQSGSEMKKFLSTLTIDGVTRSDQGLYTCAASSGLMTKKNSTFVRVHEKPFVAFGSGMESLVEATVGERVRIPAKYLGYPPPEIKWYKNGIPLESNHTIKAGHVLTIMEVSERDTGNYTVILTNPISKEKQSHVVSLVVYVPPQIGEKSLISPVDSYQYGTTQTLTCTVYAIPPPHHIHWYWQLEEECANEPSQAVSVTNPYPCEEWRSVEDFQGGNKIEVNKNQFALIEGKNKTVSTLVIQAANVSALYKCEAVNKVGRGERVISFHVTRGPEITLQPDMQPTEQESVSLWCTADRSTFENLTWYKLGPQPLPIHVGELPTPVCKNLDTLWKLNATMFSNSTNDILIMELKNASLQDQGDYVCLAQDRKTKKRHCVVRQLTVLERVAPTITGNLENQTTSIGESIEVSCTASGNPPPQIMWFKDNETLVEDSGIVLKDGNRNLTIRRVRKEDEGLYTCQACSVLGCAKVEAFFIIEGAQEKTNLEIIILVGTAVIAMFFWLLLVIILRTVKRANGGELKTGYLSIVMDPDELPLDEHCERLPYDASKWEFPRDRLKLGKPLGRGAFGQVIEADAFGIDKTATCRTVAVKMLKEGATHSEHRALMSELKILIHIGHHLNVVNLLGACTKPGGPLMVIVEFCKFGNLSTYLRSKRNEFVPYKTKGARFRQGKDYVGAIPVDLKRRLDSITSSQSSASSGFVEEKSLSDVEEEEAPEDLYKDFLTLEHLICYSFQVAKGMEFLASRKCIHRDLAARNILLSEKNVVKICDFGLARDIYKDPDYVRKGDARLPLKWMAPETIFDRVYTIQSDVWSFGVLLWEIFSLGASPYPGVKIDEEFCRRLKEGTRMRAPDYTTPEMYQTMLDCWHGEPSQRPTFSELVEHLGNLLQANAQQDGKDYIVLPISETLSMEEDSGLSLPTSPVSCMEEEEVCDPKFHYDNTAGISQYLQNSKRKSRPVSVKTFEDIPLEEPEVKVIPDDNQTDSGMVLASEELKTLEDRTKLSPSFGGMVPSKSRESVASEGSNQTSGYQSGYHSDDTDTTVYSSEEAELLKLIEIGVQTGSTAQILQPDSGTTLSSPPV
Procedure, shortened: as §2

[6] = target: T6, AKT (Homo sapiens, UniProt Q9Y243); test: Kinase inhibition assay (33P transfer), AKT; conditions: Table 2, class symbols A-E; read-out: AKT3-1
T6 construct: Kinases are expressed as either kinase domains or full length constructs; made in house
T6 sequence (Q9Y243 whole entry, the tested form may be a part): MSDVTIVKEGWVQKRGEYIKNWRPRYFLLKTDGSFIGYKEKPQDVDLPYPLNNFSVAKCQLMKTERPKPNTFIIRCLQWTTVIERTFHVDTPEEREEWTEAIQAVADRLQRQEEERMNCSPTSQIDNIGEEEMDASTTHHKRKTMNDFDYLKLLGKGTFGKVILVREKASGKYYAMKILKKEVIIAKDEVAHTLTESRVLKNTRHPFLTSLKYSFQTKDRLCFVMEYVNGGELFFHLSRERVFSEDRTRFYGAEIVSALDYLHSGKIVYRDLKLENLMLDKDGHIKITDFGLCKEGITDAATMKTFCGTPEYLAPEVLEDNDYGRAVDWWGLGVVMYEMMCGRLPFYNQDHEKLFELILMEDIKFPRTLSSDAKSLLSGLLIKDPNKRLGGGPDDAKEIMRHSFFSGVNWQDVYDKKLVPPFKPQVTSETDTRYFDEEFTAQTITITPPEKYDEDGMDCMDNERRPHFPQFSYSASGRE
Procedure, shortened: as §2

[7] = target: T7, Itk (Homo sapiens, UniProt Q08881); test: Kinase inhibition assay (33P transfer), Itk; conditions: Table 3, class symbols; read-out: Itk-1
T7 construct: Kinases are expressed as either kinase domains or full length constructs; made in house
T7 sequence (Q08881 1-620): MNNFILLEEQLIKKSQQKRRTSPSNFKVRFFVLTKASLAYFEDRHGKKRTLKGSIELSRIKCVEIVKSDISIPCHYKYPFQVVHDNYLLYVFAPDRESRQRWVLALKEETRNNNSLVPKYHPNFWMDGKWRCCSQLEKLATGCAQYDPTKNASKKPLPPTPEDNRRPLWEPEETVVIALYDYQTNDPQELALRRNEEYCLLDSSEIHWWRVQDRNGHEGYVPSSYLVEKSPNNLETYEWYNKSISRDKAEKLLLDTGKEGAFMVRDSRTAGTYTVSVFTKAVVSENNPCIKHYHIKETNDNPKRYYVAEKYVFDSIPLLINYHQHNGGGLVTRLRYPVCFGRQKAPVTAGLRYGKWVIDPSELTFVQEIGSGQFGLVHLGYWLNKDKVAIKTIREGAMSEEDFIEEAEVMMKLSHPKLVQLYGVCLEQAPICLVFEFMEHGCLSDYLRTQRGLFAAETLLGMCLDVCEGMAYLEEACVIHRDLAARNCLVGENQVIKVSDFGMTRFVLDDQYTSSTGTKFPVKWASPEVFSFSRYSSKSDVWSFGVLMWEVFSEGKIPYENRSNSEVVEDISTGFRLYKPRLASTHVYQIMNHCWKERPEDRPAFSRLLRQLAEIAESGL
Procedure, shortened: as §1

[8] = target: T8, EGFR (Homo sapiens, UniProt P00533); test: Kinase inhibition assay (33P transfer), EGFR; conditions: Table 2, class symbols A-E; read-out: EGFR-1
T8 construct: Kinases are expressed as either kinase domains or full length constructs; made in house
Procedure, shortened: as §1

[9] = target: T9, Lck (Homo sapiens, UniProt P06239); test: Kinase inhibition assay (33P transfer), Lck; conditions: Table 3, class symbols; read-out: Lck-1
T9 construct: Kinases are expressed as either kinase domains or full length constructs; made in house
T9 sequence (P06239 whole entry, species assumed, the tested form may be a part): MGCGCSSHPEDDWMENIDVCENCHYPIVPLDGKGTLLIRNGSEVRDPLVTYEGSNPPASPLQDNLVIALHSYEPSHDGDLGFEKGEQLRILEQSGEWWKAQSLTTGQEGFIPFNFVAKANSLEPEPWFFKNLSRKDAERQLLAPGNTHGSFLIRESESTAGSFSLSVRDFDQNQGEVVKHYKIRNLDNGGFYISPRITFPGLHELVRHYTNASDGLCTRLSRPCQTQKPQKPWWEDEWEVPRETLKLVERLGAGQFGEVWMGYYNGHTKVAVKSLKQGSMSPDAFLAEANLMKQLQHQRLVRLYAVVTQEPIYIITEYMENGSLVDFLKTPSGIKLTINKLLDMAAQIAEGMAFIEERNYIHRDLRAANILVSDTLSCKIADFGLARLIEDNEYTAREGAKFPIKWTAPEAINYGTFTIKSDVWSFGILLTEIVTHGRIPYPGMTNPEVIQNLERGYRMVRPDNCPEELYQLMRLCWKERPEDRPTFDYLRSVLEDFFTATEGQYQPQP
Procedure, shortened: as §2

T1 sequence (P08581 25-1390): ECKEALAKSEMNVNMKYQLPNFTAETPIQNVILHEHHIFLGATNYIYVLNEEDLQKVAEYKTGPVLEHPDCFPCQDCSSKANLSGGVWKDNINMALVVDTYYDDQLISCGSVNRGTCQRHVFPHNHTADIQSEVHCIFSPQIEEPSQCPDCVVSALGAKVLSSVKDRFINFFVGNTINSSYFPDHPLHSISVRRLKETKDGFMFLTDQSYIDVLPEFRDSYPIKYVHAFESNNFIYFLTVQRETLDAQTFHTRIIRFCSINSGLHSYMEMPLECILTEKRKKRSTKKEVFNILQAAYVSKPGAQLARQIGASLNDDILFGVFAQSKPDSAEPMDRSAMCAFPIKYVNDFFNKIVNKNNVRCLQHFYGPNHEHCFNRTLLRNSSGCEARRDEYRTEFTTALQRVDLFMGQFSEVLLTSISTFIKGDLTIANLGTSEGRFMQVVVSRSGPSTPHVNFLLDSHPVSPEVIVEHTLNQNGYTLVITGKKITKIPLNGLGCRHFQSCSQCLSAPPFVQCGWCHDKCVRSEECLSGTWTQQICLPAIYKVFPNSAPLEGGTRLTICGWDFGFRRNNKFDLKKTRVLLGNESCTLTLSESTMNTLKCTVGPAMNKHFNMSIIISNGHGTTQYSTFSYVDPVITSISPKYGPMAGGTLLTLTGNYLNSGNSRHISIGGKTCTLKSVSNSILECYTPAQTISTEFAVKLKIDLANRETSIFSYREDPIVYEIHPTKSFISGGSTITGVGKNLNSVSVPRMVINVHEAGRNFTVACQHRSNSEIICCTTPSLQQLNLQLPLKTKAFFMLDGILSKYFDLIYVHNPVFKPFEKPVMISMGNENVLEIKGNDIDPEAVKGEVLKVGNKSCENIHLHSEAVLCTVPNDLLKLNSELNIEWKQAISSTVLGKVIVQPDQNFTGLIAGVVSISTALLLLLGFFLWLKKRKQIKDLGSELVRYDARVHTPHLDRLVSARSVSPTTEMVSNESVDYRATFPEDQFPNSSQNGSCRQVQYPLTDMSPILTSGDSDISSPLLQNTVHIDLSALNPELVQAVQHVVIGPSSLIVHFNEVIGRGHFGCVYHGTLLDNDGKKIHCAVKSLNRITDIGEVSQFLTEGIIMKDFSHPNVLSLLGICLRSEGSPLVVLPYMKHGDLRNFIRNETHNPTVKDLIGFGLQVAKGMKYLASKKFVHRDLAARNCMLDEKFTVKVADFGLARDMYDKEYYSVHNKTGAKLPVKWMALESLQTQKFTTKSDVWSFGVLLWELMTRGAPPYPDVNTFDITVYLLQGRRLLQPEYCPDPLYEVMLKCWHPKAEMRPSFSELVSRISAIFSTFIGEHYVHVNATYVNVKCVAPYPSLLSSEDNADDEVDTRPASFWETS

Structure (SMILES)	IC50 [1] [µM]	IC50 [2] [µM]	IC50 [3] [µM]	IC50 [4] [µM]	IC50 [5] [µM]	IC50 [6] [µM]	IC50 [7] [µM]	IC50 [8] [µM]	IC50 [9] [µM]
COc1cc(Nc2ncnc(-c3cccnc3N[C@H](C)c3ccccc3)n2)cc(OC)c1OC [Compound 1110]	> 9.81	> 9.81	> 9.81	> 9.81	5.23 to 7.63	> 9.81	> 9.81	0.872 to 5.23	< 0.872
COc1ccc(Nc2ncnc(N(C)C3CCN(C)CC3)n2)cc1OC [Compound 861]	> 12.6	6.7 to 9.76	> 12.6	> 12.6	> 12.6	> 12.6	> 12.6	> 12.6	> 12.6
COc1cc(Nc2ncnc(Nc3cccc(Cl)c3)n2)cc(OC)c1 [Compound 723]	6.71 to 9.78	< 1.12	1.12 to 6.71	< 1.12	1.12 to 6.71	1.12 to 6.71	9.78 to 12.6	< 1.12	1.12 to 6.71
COc1ccc(Nc2ncnc(Nc3ccc4c(c3)C(=O)N(C)C4=O)n2)cc1OC [Compound 856]	> 11.1	0.984 to 5.91	> 11.1	5.91 to 8.61	> 11.1	> 11.1	> 11.1	> 11.1	> 11.1
COc1cc(Nc2ncnc(-c3cccnc3N[C@@H](C)c3ccccc3)n2)cc(OC)c1OC [Compound 1111]	> 9.81	5.23 to 7.63	> 9.81	> 9.81	< 0.872	> 9.81	> 9.81	0.872 to 5.23	< 0.872
COc1ccc(Nc2ncnc(NCC(=O)c3ccccc3)n2)cc1OC [Compound 857]	> 12.3	6.57 to 9.58	> 12.3	> 12.3	> 12.3	> 12.3	> 12.3	6.57 to 9.58	> 12.3
COc1ccc(Nc2ncnc(NCc3ncc(C(F)(F)F)cc3Cl)n2)cc1OC [Compound 858]	> 10.2	> 10.2	> 10.2	> 10.2	> 10.2	> 10.2	> 10.2	5.44 to 7.94	> 10.2
COc1ccc(N(C)c2ncnc(Nc3ccc(OC)c(OC)c3)n2)cc1 [Compound 863]	1.09 to 6.53	6.53 to 9.53	> 12.2	> 12.2	1.09 to 6.53	> 12.2	> 12.2	< 1.09	1.09 to 6.53
COC(=O)c1cccc(Nc2ncnc(-n3c(NCc4ccccc4)nc4ccccc43)n2)c1 [Compound 1067]	> 9.97	0.886 to 5.32	> 9.97	> 9.97	< 0.886	> 9.97	> 9.97	0.886 to 5.32	> 9.97
COC(=O)c1cccc(Nc2ncnc(-n3c(NCc4ccc(OC)cc4)nc4ccccc43)n2)c1 [Compound 1068]	> 9.35	4.98 to 7.27	> 9.35	> 9.35	< 0.831	> 9.35	> 9.35	> 9.35	> 9.35

Now from value to molecule:

IC50 [1] [µM]	IC50 [2] [µM]	IC50 [3] [µM]	IC50 [4] [µM]	IC50 [5] [µM]	IC50 [6] [µM]	IC50 [7] [µM]	IC50 [8] [µM]	IC50 [9] [µM]	Structure (SMILES)
0.952 to 5.71	0.952 to 5.71	0.952 to 5.71	5.71 to 8.33	5.71 to 8.33	0.952 to 5.71	0.952 to 5.71	0.952 to 5.71	> 10.7	COc1ccc(Nc2ncnc(NCCc3ccc(Cl)c(Cl)c3)n2)cc1OC [Compound 859]
1.05 to 6.29	9.18 to 11.8	> 11.8	6.29 to 9.18	6.29 to 9.18	> 11.8	> 11.8	> 11.8	> 11.8	COc1ccc(Nc2ncnc(N(C)c3ccc(C(=O)O)cc3)n2)cc1OC [Compound 860]
1.02 to 6.13	1.02 to 6.13	> 11.5	> 11.5	< 1.02	> 11.5	8.94 to 11.5	1.02 to 6.13	1.02 to 6.13	CC(C)Nc1ncccc1-c1ncnc(Nc2ccc(N3CCOCC3)cc2)n1 [Compound 1112]
< 0.865	0.865 to 5.19	> 9.73	< 0.865	0.865 to 5.19	> 9.73	0.865 to 5.19	0.865 to 5.19	< 0.865	COc1cc(Nc2ncnc(Nc3cc(-c4ccc(C(N)=O)cc4)n[nH]3)n2)cc(OC)c1OC [Compound 642]
< 1.18	1.18 to 7.11	1.18 to 7.11	< 1.18	< 1.18	1.18 to 7.11	< 1.18	< 1.18	1.18 to 7.11	Clc1cccc(Nc2ncnc(Nc3ccc4[nH]ncc4c3)n2)c1 [Compound 134]
< 1.01	> 11.4	> 11.4	> 11.4	1.01 to 6.07	> 11.4	> 11.4	> 11.4	> 11.4	COC(=O)c1ccc(N(C)c2ncnc(Nc3ccc(OC)c(OC)c3)n2)cc1 [Compound 864]
< 0.819	< 0.819	> 9.21	4.91 to 7.16	< 0.819	> 9.21	4.91 to 7.16	< 0.819	0.819 to 4.91	CN(c1ccc2c(cnn2Cc2ccccc2)c1)c1ncnc(Nc2cccc(Cn3ccnn3)c2)n1 [Compound 677]
1.08 to 6.45	1.08 to 6.45	> 12.1	> 12.1	6.45 to 9.41	> 12.1	> 12.1	< 1.08	1.08 to 6.45	COc1ccc(Nc2ncnc(N(C)c3ccccc3Cl)n2)cc1OC [Compound 865]
< 1.08	1.08 to 6.45	> 12.1	1.08 to 6.45	1.08 to 6.45	> 12.1	> 12.1	< 1.08	1.08 to 6.45	CN(c1cccc(Cl)c1)c1ncnc(Nc2ccc(OCCO)cc2)n1 [Compound 641]
1 to 6	< 1	> 11.3	> 11.3	1 to 6	> 11.3	> 11.3	< 1	1 to 6	CCOc1ccc(Nc2ncnc(N(C)c3cccc(Cl)c3)n2)cc1OCC [Compound 640]
0.843 to 5.06	< 0.843	> 9.48	0.843 to 5.06	0.843 to 5.06	5.06 to 7.38	0.843 to 5.06	< 0.843	0.843 to 5.06	c1ccc(Cn2ncc3cc(Nc4ncnc(Nc5cccc(Cn6ccnn6)c5)n4)ccc32)cc1 [Compound 676]
0.94 to 5.64	0.94 to 5.64	0.94 to 5.64	> 10.6	0.94 to 5.64	> 10.6	> 10.6	0.94 to 5.64	5.64 to 8.23	c1ccc(Nc2ncccc2-c2ncnc(Nc3ccc(N4CCOCC4)cc3)n2)cc1 [Compound 1113]
